Experimental data published in PMC10812672, “Short Antimicrobial Peptide Derived from the Venom Gland Transcriptome of Pamphobeteus verdolaga Increases Gentamicin Susceptibility of Multidrug-Resistant Klebsiella pneumoniae” (Antibiotics, 2023).

What was measured:
[1] = tested on: multidrug-resistant (MDR) strain of K. pneumoniae, clinical isolate; assay: microbe, parasite or virus in culture; format: cell-based, Klebsiella pneumoniae; settings: for IC50 / MIC: Klebsiella pneumoniae; for MIC / Classification at 10^6 CFU/mL: MDR K. pneumoniae clinical isolate; for Classification at 10^6 CFU/mL: CLSI classification
Description: A multidrug-resistant (MDR) strain of K. pneumoniae was identified and isolated from a tertiary-level hospital in Medellin, Colombia, using the VITEK-2 system (bioMérieux, Marcy-l’Étoile, France). The MDR strain was evaluated against several antibiotics at concentrations of 1.56–100 μM. […] In contrast, the strain was susceptible to doxycycline (Supplementary Figure S7g) and chloramphenicol (Supplementary Figure S7h), with MICs of 50 μM and 100 µM, respectively (Table 3). […] All of P. verdolaga’s AMPs were evaluated against the clinical isolate at concentrations of 1.56–200 µM (Supplementary Figure S8). […] A growth inhibition kinetic assay was conducted. […] All of P. verdolaga’s peptides at 100 μM induced morphological changes in the MDR K. pneumoniae, indicating membrane interactions, even though no significant inhibition was observed (Supplementary Figure S9).
The evaluation of the antimicrobial activity of the peptides was conducted using the CLSI’s broth microdilution method for bacterial susceptibility testing. For the screening phase, peptides were evaluated at a single 30 μM concentration, in triplicate and in three independent assays, against the E. coli ATCC® 8739, E. coli ATCC® 25922, S. aureus ATCC® 6538, or S. aureus ATCC® 29213 reference USP and CLSI strains. For the determination of MIC, MBC, or IC50, peptides or antibiotics were evaluated in concentrations between 1.56–200 µM. These evaluations were conducted in triplicate and in three independent assays, against the E. coli ATCC® 25922, S. aureus ATCC® 29213, E. faecalis ATCC® 49532, P. aeruginosa ATCC® 9027, and K. pneumoniae ATCC® BAA-1705, or the clinically isolated MDR strain. In detail, 1 mL of a glycerol stock solution of the ATCC® or clinically isolated bacterial strain was added to 9 mL of Mueller-Hinton Broth and incubated for 18 h, 180 rpm and 37 °C (Incubator 1000, Heidolph Instruments, Schwabach, Germany). After the incubation, 1 mL of the previous solution was transferred to a new recipient containing 9 mL of fresh Mueller-Hinton broth and incubated for 4 h, 180 rpm and 37 °C (Incubator 1000, Heidolph Instruments, Schwabach, Germany). During the second incubation, the peptides or the antibiotics were dissolved in PBS pH 7.20 in concentrations between 19.53–2500 µM (MC5 Micro Balance, Sartorius AG, Göttingen, Germany). An amount of 10 µL of either peptide or antibiotic was dispensed in triplicate in 96-well flat bottom culture plates, along with 10 µL of PBS (Negative activity control), BTM-P1 (Positive activity control), or 10 µL of Mueller-Hinton broth (Blank); then, 110 µL of Mueller-Hinton broth was poured in all wells. Following this, the bacteria were suspended in Mueller-Hinton broth up to a concentration of approximately 1.50 × 10^8 CFU/mL, as measured by optical density at 600 nm between 0.06 to 0.11 (0.5 McFarland standard), in a Multiskan SkyHigh spectrophotometer (ThermoFisher Scientific, Waltham, MA, USA). Amounts of 5 µL of the 1.50 × 10^8 CFU/mL suspension were added to each well (except for the blank) for a final well concentration of approximately 6 × 10^6 CFU/mL. The plate was incubated for 24 h at 37 °C (BE 500, Memmert GmbH, Büchenbach, Germany) and optical density was measured at 600 nm in a Multiskan SkyHigh spectrophotometer (ThermoFisher Scientific, Waltham, MI, USA). Following the measurement of optical density, plates were visually inspected to determine the MIC. Subsequently, 100 µL of the concentration associated to the MIC and 100 µL of the next higher concentration were added to Petri dishes containing Mueller-Hinton Agar. The dishes were then incubated for 24 h at 37 °C (BE 500, Memmert GmbH, Büchenbach, Germany). After incubation, the Petri dishes were visually inspected, and the MBC was determined in the absence of growth. IC50 values were interpolated from regressions with correlation values above 0.70. […]

E. coli = settings: custom database compiled from public databases and PubMed; averaged where multiple reports; cited from earlier work
From the text: (§1) Agelaia-CP Agelaia pallipes […] […] 13 1 4.00 1.25 s IsCT [EK7. GP8. Opisthacanthus SK11] madagascariensi […] 13 4 2.00 1.17 s Opisthacanthus IsCT [EK7] madagascariensi […] 13 3 2.00 1.00 s Opisthacanthus IsCT [WL6. SK11 ] madagascariensi ILGKILKGIKKLF 13 4 2.00 2.00 s Opisthacanth ... || (+ 2 further places)

S. aureus = settings: custom database compiled from public databases and PubMed; averaged where multiple reports; cited from earlier work
From the text: as §1

[2] = 24 h, peptides 1.56–200 µM, antibiotics 1.56–100 µM, 24 h 37 °C

Row | Compound | IC50 [1] [µM] | MIC [1, 2] [µM] | MIC [1] [µg/mL] | Classification at 10^6 CFU/mL [1] | MIC E. coli (E. coli) [µM] | MIC S. aureus (S. aureus) [µM]
1 | O=C(N[C@H](CO)[C@H](O)c1ccc([N+](=O)[O-])cc1)C(Cl)Cl [Chloramphenicol, chloramphenicol] | 56.2 | 100 | 4.04 | Susceptible |  | 
2 | C[C@H]1c2cccc(O)c2C(=O)C2=C(O)[C@]3(O)C(=O)C(C(N)=O)=C(O)[C@@H](N(C)C)[C@@H]3[C@@H](O)[C@@H]21 [Doxycycline, doxycycline] | 38.1 | 50 | 3.21 | Susceptible |  | 
3 | ACHAHCQSVGRRGGYCGNFRMTCYCY [Midgut defensin G2, cDB AMP; Haemaphysalis longicornis] |  |  |  |  | 5.94 | 5.09
4 | ACQFWSCNSSCISRGYRQGYCWGIQYKYCQCQ [Defensin-1, cDB AMP; Centruroides limpidus limpidus] |  |  |  |  | 13.08 | 13.08
5 | CRRLCYKQRCVTYCRGR [Gomesin, cDB AMP; Acanthoscurria gomesiana] |  |  |  |  | 0.80 | 12.10
6 | FFGSLLSLGSKLLPSVFKLFQRKKE [Css54, cDB AMP; Centruroides suffusus suffusus] |  |  |  |  | 4.35 | 4.35
7 | FIGAIARLLSKIFGKR [Bmkn2, cDB AMP; Mesobuthus martensii] |  |  |  |  | 1.50 | 0.60
8 | FLFKLIPKAIKGLIKAFK [AcrAP1a [S4K.H8K.S11K.S15K]] [cDB AMP; Androctonus crassicauda] |  |  |  |  | 8.00 | 4.00
9 | FLFKLIPKAIKGLIKAFK [AcrAP1a, cDB AMP; Androctonus crassicauda] |  |  |  |  | 4 | 8
10 | FLFKLIPKAIKGLLKAFK [AcrAP2 [S4K.N8K.S11K.S15K], cDB AMP; Androctonus crassicauda] |  |  |  |  | 8.00 | 4.00
11 | FLFKLIPKAIKGLVKAIRK [AaeAP2 [S4.8.15K; A11K. N19K], cDB AMP; Androctonus aeneas] |  |  |  |  | 10.99 | 8.24
12 | FLFKLIPKAIKKLISKFK [AamAP1 [S4K.H8K.G11.12K.A16K], cDB AMP; Androctonus amoreuxi] |  |  |  |  | 7.50 | 5.00
13 | FLFKLIPKVIKGLVKAIRK [AaeAP1 [S4.8.15K; A11K. N19K], cDB AMP; Androctonus aeneas] |  |  |  |  | 10.85 | 8.14
14 | FLFSLIPSAISGLISAFKGRR [Marmelittin, cDB AMP; Mesobuthus martensii] |  |  |  |  | 6.21 | 6.48
15 | FLGSLFSIGSKLLPGVIKLFQRKKQ [Im-5, cDB AMP; Isometrus maculatus] |  |  |  |  | 10.00 | 3.75
16 | FWGALAKGALKLIGSLFSSFSKKD [Pandinin-2 [P14G], cDB AMP; Pandinus imperator] |  |  |  |  | 12.50 | 12.50
17 | GFGMALKLLKKVL [Macropin 1, cDB AMP; Macropis fulvipes] |  |  |  |  | 3.00 | 3.70
18 | GFLSILKKVLPKVMAHMK [Melectin, cDB AMP; Melecta albifrons] |  |  |  |  | 10.37 | 12.80
19 | GLHKVMREVLGYERNSYKKFFLR [Ixosin, cDB AMP; Ixodes sinensis] |  |  |  |  | 10.45 | 1.29
20 | GLLSKFGRLARKLARVIPKV [Pilosulin-2, cDB AMP; Myrmecia pilosula] |  |  |  |  | 1.33 | 4.00

Row | Compound | IC50 [1] [µM] | MIC [1, 2] [µM] | MIC [1] [µg/mL] | Classification at 10^6 CFU/mL [1] | MIC E. coli (E. coli) [µM] | MIC S. aureus (S. aureus) [µM]
21 | GMASLLAKVLPHVVKLIK [Codesane, cDB AMP; Colletes daviesanus] |  |  |  |  | 3.70 | 3.70
22 | GMWSKILGHLIR [HAL-1, cDB AMP; Halictus sexcinctus] |  |  |  |  | 3.80 | 7.70
23 | ILGKIWKIKKLF [IsCT precursor, cDB AMP; Opisthacanthus madagascariensis] |  |  |  |  | 2.00 | 2.00
24 | ILKKIWKPIKKLF [IsCT-P, cDB AMP; Opisthacanthus madagascariensis] |  |  |  |  | 2.00 | 1.00
25 | INLKAIAALAKKLLG [Mastoparan-like peptide 12c, cDB AMP; Vespa magnifica] |  |  |  |  | 3.90 | 1.95
26 | LKWGAILKHIIK [PNG-1/3, cDB AMP; Panurgus calcaratus] |  |  |  |  | 3.70 | 11.70
27 | LNWGAILKHIIK [PNG-1, cDB AMP; Panurgus calcaratus] |  |  |  |  | 3.70 | 10.60
28 | LNWGAILKKIIK [PNG-1/9, cDB AMP; Panurgus calcaratus] |  |  |  |  | 4.30 | 7.30
29 | LNWGALLKHLLK [PNG-1/19, cDB AMP; Panurgus calcaratus] |  |  |  |  | 3.80 | 6.70
30 | LNWGKILKHIIK [PNG-1/6, cDB AMP; Panurgus calcaratus] |  |  |  |  | 4.00 | 8.70
31 | LNWKAILKHIIK [PNG-1/5, cDB AMP; Panurgus calcaratus] |  |  |  |  | 2.30 | 5.30
32 | PFKLSLHL [Jellein-1, cDB AMP; Apis mellifera] |  |  |  |  | 2.62 | 10.48
33 | QCRRLCYKQRCVTYCRGR [Gomesin c(1-18)[Gln1], cDB AMP; Acanthoscurria gomesiana] |  |  |  |  | 0.48 | 1.44
34 | RRWCFRVCYKGFCYRKCR [Polyphemusin-2, cDB AMP; Limulus polyphemus] |  |  |  |  | 3.87 | 5.14
35 | RRWCFRVCYRGFCYRKCR [Polyphemusin-1, cDB AMP; Limulus polyphemus] |  |  |  |  | 0.9 | 0.3
36 | SIGRRGGYCAGIIKQTCTCYR [Longicin (53-73), cDB AMP; Haemaphysalis longicornis] |  |  |  |  | 2.00 | 2.00
37 | VNWKKILGKIIKVAK [Lasioglossin LL-II, cDB AMP; Lasioglossum laticeps] |  |  |  |  | 1.40 | 9.00
38 | VNWKKILGKIIKVVK [Lasioglossin LL-III, cDB AMP; Lasioglossum laticeps] |  |  |  |  | 1.40 | 3.90
39 | VNWKKVLGKIIKVAK [Lasioglossin LL-I, cDB AMP; Lasioglossum laticeps] |  |  |  |  | 1.70 | 14.3
40 | VWLSALKFIGKHLAKHQLSKL [Lycosin-II, cDB AMP; Lycosa singoriensis] |  |  |  |  | 12.50 | 3.10
